The values that follow are results of earlier work, collected in US20170189326A1, “Topical Antiaging Polyphenol Compositions” (priority 2015, published 2017).

The structures appear in SMILES notation.

The subject of this data set is dimethylnitrosamine-induced hepatic injury. The settings on record: oral administration, rats.

In the case of `COc1cc(/C=C/C(=O)CC(=O)/C=C/c2ccc(O)c(OC)c2)ccc1O` [curcumin], the “protection against dimethylnitrosamine-induced hepatic injury” value is on record as “protected”.
